Test results as given in patent US9050341B2, “Methods of treating drug resistant and other tumors by administering 6,7-dialkoxy quinazoline derivatives” (NATCO PHARMA LIMITED, priority 2009, dated 2015).

Assays:
Test in all cases: KinomeScan kinase profiling
Format in all cases: binding
BRAF = target: T1, BRAF (Homo sapiens, UniProt P15056)
T1 construct: purchased Ambit Biosciences Corp (KinomeScan); host or cells: E. coli host derived from the BL21 strain, T7 phage
Summary of the method: (§1)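 Kinases were expressed as T7 phage fusions in a BL21-derived E. coli host and the cleared lysates were used. Ligand beads were blocked with biotin and buffer (1% BSA, 0.05% Tween 20, 1 mM DTT). Compounds came from 40× DMSO stocks, and phage in the eluates was titred by qPCR.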

ARK5 = target: T2, ARK5 (Homo sapiens, UniProt O60285)
T2 construct: purchased Ambit Biosciences Corp (KinomeScan); host or cells: E. coli host derived from the BL21 strain, T7 phage
Summary of the method: as §1

ULK1 = target: T3, ULK1 (Homo sapiens, UniProt O75385)
T3 construct: purchased Ambit Biosciences Corp (KinomeScan); host or cells: E. coli host derived from the BL21 strain (T7 phage lysate)
Summary of the method: as §1

FLT3 = target: T4, FLT3 (Homo sapiens, UniProt P36888)
T4 construct: host or cells: E. coli host derived from BL21, infected with T7 phage
Summary of the method: as §1

EGFR (G719S) = target: T5, EGFR (G719S) (Homo sapiens, UniProt P00533, G719S)
T5 construct: purchased Ambit Biosciences Corp (KinomeScan); host or cells: T7 phage in E. coli host derived from BL21
Summary of the method: as §1

CLK1 = target: T6, CLK1 (Homo sapiens, UniProt P49759)
T6 construct: host or cells: T7 phage in E. coli (BL21-derived)
Summary of the method: as §1

MAPKAPK5 = target: T7, MAPKAPK5 (Homo sapiens, UniProt Q8IW41)
T7 construct: host or cells: E. coli derived from BL21, infected with T7 phage
Summary of the method: as §1

EPHB4 = target: T8, EPHB4 (Homo sapiens, UniProt P54760)
T8 construct: host or cells: E. coli host derived from BL21, T7 phage lysate
Summary of the method: as §1

PIK3CA (E545K) = target: T9, PIK3CA (E545K) (Homo sapiens, UniProt P42336, E545K)
T9 construct: host or cells: E. coli host derived from the BL21 strain, infected with T7 phage
Summary of the method: as §1

LCK = target: T10, LCK (Homo sapiens, UniProt P06239)
T10 construct: host or cells: T7 phage in E. coli host derived from BL21
Summary of the method: as §1

PAK2 = target: T11, PAK2 (Homo sapiens, UniProt Q13177)
T11 construct: host or cells: E. coli host derived from the BL21 strain, infected with T7 phage
Summary of the method: as §1

BTK = target: T12, BTK (Homo sapiens, UniProt Q06187)
T12 construct: purchased Ambit Biosciences Corp (KinomeScan); host or cells: E. coli host derived from the BL21 strain, T7 phage
Summary of the method: as §1

SIK2 = target: T13, SIK2 (Homo sapiens, UniProt Q9H0K1)
T13 construct: host or cells: E. coli host derived from the BL21 strain, T7 phage lysate
Summary of the method: as §1

CAMK1G = target: T14, CAMK1G (Homo sapiens, UniProt Q96NX5)
T14 construct: purchased Ambit Biosciences Corp (KinomeScan); host or cells: E. coli host derived from the BL21 strain, T7 phage
Summary of the method: as §1

PRKCH = target: T15, PRKCH (Homo sapiens, UniProt P24723)
T15 construct: purchased Ambit Biosciences Corp (KinomeScan); host or cells: E. coli host derived from BL21, infected with T7 phage
Summary of the method: as §1

TGFBR2 = target: T16, TGFBR2 (Homo sapiens, UniProt P37173)
T16 construct: host or cells: E. coli host derived from the BL21 strain, T7 phage lysate
Summary of the method: as §1

PCTK1 = target: T17, PCTK1 (Homo sapiens, UniProt Q00536)
T17 construct: host or cells: E. coli host derived from the BL21 strain, infected with T7 phage
Summary of the method: as §1

[1] = target: T18, EGFR (L747-S752del, P753S) (Homo sapiens, UniProt P00533, DEL747-752/P753S)
T18 construct: purchased Ambit Biosciences Corp (KinomeScan); host or cells: T7 phage in E. coli host derived from BL21
Summary of the method: as §1

ERK1 = target: T19, ERK1 (Homo sapiens, UniProt P27361)
T19 construct: host or cells: E. coli host derived from BL21, T7 phage lysate
Summary of the method: as §1

DLK = target: T20, DLK (Homo sapiens, UniProt Q12852)
T20 construct: purchased Ambit Biosciences Corp (KinomeScan); host or cells: T7 phage in E. coli host derived from BL21
Summary of the method: as §1

EPHB3 = target: T21, EPHB3 (Homo sapiens, UniProt P54753)
T21 construct: host or cells: E. coli host derived from BL21, T7 phage lysate
Summary of the method: as §1

ABL1 (Q252H) = target: T22, ABL1 (Q252H) (Homo sapiens, UniProt P00519, Q252H)
T22 construct: host or cells: E. coli host derived from BL21 (T7 phage lysate)
Summary of the method: as §1

T9 sequence (P42336 whole entry E545K): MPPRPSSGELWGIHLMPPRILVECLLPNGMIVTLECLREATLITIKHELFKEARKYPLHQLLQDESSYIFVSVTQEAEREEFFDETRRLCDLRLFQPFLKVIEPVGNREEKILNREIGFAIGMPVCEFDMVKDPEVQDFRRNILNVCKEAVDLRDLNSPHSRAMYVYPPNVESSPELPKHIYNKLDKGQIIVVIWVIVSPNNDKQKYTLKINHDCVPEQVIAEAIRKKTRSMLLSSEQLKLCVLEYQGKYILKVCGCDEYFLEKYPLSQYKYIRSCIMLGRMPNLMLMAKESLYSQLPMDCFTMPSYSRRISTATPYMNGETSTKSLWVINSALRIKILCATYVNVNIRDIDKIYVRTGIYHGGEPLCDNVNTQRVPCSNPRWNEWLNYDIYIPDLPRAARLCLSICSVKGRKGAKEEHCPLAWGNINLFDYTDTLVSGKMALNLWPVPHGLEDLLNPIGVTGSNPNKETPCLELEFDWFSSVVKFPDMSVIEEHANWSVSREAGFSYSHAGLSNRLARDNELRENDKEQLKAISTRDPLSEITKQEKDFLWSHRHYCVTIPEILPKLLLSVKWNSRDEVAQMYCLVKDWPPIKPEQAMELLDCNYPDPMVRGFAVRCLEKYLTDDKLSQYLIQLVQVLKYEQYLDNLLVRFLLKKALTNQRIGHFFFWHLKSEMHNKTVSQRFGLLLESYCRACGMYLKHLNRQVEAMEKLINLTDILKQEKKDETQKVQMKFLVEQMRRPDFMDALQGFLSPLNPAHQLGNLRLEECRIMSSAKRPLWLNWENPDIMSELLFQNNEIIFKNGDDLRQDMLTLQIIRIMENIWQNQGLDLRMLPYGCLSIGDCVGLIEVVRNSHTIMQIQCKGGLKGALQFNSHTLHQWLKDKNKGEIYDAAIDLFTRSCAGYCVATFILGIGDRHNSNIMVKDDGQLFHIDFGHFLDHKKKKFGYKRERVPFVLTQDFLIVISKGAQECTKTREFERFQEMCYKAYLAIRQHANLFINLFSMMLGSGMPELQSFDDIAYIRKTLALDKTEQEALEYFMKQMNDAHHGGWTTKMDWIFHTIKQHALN
T13 sequence (Q9H0K1 whole entry): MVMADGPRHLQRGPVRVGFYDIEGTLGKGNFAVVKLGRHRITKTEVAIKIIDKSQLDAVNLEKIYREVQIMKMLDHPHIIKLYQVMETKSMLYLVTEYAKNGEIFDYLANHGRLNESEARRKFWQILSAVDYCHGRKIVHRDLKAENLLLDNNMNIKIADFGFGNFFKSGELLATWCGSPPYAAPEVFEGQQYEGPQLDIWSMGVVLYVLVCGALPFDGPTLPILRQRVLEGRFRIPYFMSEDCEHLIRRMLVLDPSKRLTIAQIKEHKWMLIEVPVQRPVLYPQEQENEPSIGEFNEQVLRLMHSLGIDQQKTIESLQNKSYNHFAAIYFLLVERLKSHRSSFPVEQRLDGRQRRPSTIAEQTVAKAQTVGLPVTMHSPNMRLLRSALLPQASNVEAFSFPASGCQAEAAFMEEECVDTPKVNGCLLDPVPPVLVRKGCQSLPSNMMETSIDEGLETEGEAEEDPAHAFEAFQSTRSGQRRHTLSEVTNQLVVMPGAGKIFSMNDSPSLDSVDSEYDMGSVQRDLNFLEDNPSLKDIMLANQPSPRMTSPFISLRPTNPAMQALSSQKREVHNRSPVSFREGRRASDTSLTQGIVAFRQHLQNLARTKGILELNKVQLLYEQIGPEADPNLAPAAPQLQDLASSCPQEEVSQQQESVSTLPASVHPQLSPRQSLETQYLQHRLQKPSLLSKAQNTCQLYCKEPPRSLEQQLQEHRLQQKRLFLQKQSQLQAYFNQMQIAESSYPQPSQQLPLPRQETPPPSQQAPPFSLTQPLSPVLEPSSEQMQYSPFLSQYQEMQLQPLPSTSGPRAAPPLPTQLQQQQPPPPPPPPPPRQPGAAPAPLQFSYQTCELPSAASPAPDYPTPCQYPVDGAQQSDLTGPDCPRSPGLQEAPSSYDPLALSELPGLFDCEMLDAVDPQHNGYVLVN
T17 sequence (Q00536 whole entry): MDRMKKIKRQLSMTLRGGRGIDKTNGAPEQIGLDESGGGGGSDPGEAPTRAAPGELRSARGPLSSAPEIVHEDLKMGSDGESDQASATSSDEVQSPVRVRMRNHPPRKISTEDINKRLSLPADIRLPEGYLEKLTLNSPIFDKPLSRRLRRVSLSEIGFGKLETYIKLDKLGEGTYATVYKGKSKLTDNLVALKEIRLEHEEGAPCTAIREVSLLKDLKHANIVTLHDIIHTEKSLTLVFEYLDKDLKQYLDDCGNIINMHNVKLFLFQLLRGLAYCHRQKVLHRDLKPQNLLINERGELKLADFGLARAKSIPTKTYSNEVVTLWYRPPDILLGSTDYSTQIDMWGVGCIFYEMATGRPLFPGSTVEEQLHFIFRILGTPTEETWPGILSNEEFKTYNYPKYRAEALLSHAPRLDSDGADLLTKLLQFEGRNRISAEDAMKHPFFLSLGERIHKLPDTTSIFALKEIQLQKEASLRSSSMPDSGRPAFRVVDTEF
T3 sequence (O75385 whole entry): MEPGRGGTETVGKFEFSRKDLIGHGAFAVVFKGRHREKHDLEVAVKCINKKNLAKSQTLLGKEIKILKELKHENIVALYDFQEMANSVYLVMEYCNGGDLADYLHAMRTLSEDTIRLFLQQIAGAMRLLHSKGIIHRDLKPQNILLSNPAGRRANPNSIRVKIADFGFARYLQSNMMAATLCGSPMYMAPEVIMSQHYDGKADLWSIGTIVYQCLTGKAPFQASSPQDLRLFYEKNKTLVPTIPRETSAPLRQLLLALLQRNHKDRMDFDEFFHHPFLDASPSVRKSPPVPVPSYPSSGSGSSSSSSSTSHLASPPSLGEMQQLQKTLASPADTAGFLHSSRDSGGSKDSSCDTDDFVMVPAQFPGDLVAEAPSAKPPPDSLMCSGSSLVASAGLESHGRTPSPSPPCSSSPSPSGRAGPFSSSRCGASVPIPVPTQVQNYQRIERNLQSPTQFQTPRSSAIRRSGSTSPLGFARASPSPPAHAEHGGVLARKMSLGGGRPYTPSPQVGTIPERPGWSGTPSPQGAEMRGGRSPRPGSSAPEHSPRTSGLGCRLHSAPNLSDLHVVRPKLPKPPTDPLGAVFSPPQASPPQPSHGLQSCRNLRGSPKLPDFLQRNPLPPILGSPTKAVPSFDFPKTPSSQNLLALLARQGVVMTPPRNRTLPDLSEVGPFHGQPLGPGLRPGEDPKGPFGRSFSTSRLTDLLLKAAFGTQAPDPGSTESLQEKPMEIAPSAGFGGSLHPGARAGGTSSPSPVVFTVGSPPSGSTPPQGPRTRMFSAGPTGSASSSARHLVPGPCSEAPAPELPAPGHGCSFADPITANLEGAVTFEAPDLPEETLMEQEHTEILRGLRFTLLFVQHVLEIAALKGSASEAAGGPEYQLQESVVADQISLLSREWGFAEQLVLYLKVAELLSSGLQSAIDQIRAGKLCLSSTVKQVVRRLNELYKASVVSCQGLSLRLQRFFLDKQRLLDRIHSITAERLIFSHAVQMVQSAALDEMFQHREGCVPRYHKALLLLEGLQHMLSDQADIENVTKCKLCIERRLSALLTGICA
T6 sequence (P49759 whole entry): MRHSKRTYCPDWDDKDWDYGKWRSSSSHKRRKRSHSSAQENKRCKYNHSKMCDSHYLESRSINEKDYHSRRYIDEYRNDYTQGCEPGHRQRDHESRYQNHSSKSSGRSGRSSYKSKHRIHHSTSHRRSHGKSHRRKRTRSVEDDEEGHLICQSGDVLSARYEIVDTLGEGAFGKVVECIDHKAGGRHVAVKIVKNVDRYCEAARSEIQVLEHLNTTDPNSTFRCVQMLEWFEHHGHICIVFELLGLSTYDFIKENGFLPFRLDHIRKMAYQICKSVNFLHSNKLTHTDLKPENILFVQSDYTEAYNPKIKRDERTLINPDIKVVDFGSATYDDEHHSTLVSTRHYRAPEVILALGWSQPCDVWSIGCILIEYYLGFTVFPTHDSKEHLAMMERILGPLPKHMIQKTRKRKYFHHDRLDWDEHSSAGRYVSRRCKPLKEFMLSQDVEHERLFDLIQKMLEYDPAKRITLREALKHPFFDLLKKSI
T4 sequence (P36888 27-993): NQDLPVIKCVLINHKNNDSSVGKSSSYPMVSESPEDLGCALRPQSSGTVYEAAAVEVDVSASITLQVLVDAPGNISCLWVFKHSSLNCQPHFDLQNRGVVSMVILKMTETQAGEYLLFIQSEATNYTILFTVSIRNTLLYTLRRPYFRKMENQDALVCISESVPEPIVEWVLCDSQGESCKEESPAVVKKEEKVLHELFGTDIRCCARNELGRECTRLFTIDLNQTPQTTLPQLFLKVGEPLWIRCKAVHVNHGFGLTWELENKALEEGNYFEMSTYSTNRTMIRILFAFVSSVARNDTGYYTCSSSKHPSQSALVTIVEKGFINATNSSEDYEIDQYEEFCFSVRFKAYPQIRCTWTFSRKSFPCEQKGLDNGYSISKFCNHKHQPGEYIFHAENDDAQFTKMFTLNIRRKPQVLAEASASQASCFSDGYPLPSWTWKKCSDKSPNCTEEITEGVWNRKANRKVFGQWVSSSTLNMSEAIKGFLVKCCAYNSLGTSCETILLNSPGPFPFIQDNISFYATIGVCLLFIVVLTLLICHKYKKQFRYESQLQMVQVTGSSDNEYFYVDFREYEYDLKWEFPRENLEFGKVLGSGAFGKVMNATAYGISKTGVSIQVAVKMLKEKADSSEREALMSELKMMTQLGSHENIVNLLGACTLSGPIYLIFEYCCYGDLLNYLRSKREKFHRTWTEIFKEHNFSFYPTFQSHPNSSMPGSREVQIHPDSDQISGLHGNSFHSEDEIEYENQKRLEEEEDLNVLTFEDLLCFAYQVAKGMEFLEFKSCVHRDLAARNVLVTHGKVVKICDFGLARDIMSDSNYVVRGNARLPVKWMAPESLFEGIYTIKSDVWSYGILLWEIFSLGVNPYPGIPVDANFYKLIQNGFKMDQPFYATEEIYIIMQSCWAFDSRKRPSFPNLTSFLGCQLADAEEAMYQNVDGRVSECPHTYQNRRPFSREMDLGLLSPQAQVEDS

## C#Cc1cccc(Nc2ncnc3cc(OC)c(OCCCN4CCOCC4)cc23)c1 [NRC-2694, N-(3-ethylnylphenyl)-7-methoxy-6-[3-(4-morpholinyl)propoxy]-4-quinazolinamine]
BRAF
  % Ctrl @ 10000 nM: 81 % Ctrl
ARK5
  % Ctrl @ 10000 nM: 29 % Ctrl
ULK1
  % Ctrl @ 10000 nM: 100 % Ctrl
FLT3
  % Ctrl @ 10000 nM: 49 % Ctrl
EGFR (G719S)
  % Ctrl @ 10000 nM: 0 % Ctrl
CLK1
  % Ctrl @ 10000 nM: 31 % Ctrl
MAPKAPK5
  % Ctrl @ 10000 nM: 79 % Ctrl
EPHB4
  % Ctrl @ 10000 nM: 39 % Ctrl
PIK3CA (E545K)
  % Ctrl @ 10000 nM: 100 % Ctrl
LCK
  % Ctrl @ 10000 nM: 1.5 % Ctrl
PAK2
  % Ctrl @ 10000 nM: 67 % Ctrl
BTK
  % Ctrl @ 10000 nM: 77 % Ctrl
SIK2
  % Ctrl @ 10000 nM: 21 % Ctrl
CAMK1G
  % Ctrl @ 10000 nM: 75 % Ctrl
PRKCH
  % Ctrl @ 10000 nM: 83 % Ctrl
TGFBR2
  % Ctrl @ 10000 nM: 86 % Ctrl
PCTK1
  % Ctrl @ 10000 nM: 100 % Ctrl
[1]
  % Ctrl @ 10000 nM: 0.1 % Ctrl
ERK1
  % Ctrl @ 10000 nM: 98 % Ctrl
DLK
  % Ctrl @ 10000 nM: 92 % Ctrl
EPHB3
  % Ctrl @ 10000 nM: 75 % Ctrl
ABL1 (Q252H)
  % Ctrl @ 10000 nM: 15 % Ctrl
